Assay results from patent publication US9345740B2, “IAP antagonists” (BRISTOL-MYERS SQUIBB COMPANY, priority 2012, dated 2016).

Key:
Format in all cases: binding
[1] = molecular target: XIAP BIR3 (His-BIR3 (241-356, XIAP)) (Homo sapiens (Human), UniProt P98170)
[2] = molecular target: XIAP BIR2-3 (His-BIR2-3 (125-356, C202A/C213G, XIAP)) (Homo sapiens (Human), UniProt P98170, C202A/C213G)
[3] = molecular target: XIAP BIR2 (His-BIR2 (124-240/C202A/C213G)) (Homo sapiens (Human), UniProt P98170, C202A/C213G); experiment: XIAP-BIR2/SMAC Peptide AlphaScreen Assay; details: footnote *: XIAP BIR2 alpha screen (printed in the BIR2-3 column)
Sequence of XIAP BIR2 (His-BIR2 (124-240/C202A/C213G)) (P98170 whole entry C202A/C213G, looked up): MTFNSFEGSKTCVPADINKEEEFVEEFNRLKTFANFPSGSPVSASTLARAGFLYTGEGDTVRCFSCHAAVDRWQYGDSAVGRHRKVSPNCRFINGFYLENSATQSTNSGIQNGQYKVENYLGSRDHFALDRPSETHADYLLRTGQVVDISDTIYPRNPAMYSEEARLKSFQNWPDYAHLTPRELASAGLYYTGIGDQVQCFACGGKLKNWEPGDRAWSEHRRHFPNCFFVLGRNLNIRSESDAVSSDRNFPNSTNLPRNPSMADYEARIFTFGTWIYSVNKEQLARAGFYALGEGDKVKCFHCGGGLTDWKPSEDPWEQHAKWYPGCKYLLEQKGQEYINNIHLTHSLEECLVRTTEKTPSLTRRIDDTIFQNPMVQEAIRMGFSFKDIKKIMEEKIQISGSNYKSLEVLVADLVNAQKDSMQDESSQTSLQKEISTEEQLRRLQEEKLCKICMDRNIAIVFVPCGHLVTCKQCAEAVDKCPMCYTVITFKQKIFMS
Description: C. XIAP-BIR2/SMAC Peptide AlphaScreen Assay
Assays were performed in white, flat-bottom, 384-well ProxiPlates (Perkin Elmer). The final assay volume was 10 μL prepared from additions of His-BIR2 (124-240/C202A/C213G), Biotinylated SMAC peptide, and test compounds in assay buffer consisting of 25 mM Hepes, 100 mM NaCl, 0.1% BSA, and 5 mM CaCl2. The reaction was incubated at room temperature for 60 minutes. After 60 minutes, 2.5 μL of Alphascreen detection reagent (Perkin Elmer) was added to the reaction mixture and incubated at room temperature in the dark for 120 minutes. The Alphascreen signal generated by the reaction was detected on the Envision Plate Reader Inhibition data were calculated from an Alphascreen signal generated by the no protein control reactions for 100% inhibition and vehicle-only reactions for 0% inhibition. The final concentration of reagents in the assay was 50 nM His-BIR2 (124-240/C202A/C213G), 50 nM.
Biotinylated SMAC peptide, 4 μg/mL Alphascreen detection reagents, and 0.5% DMSO. Dose response curves were generated to determine the concentration required for inhibiting 50% of the activity (IC50). Compounds were dissolved at 10 mM in dimethylsulfoxide (DMSO) and evaluated at eleven concentrations. IC50 values were derived by non-linear regression analysis.

[4] = molecular target: XIAP BIR3 (N-His-Tb-BIR3(241-356, XIAP)) (Homo sapiens (Human), UniProt P98170)
Sequence of XIAP BIR3 (N-His-Tb-BIR3(241-356, XIAP)) (P98170 whole entry, looked up): as the sequence (P98170 whole entry C202A/C213G, looked up) above, with A202C, G213C counted along it

Sequence of XIAP BIR3 (His-BIR3 (241-356, XIAP)) (P98170 whole entry, looked up): as the sequence (P98170 whole entry C202A/C213G, looked up) above, with A202C, G213C counted along it
Sequence of XIAP BIR2-3 (His-BIR2-3 (125-356, C202A/C213G, XIAP)) (P98170 whole entry C202A/C213G, looked up): as the sequence (P98170 whole entry C202A/C213G, looked up) above

| SMILES | IC50 [1] [nM] | IC50 [2] [nM] | IC50 [3] [nM] | IC50 [4] [nM] |
| --- | --- | --- | --- | --- |
| CN[C@@H](C)C(=O)N[C@@H](Cc1ccc(C#CC(=O)N[C@H]2C[C@@H](C(=O)N[C@@H]3CCCc4ccccc43)N(C(=O)[C@@H](NC(=O)[C@H](C)NC)C(C)(C)C)C2)cc1)C(=O)N1C[Si](C)(C)C[C@H]1C(=O)N[C@@H]1CCCc2ccccc21 [Example 8, (R)-1-((S)-3-(4-(3-(((3S,5S)-1-((S)-3,3-Dimethyl-2-((S)-2-(methylamino)propanamido)butanoyl)-5-(((R)-1,2,3,4-tetrahydronaphthalen-1-yl)carbamoyl)pyrrolidin-3-yl)amino)-3-oxoprop-1-yn-1-yl)phenyl)-2-((S)-2-(methylamino)propanamido)propanoyl)-3,3-dimethyl-N—((R)-1,2,3,4-tetrahydronaphthalen-1-yl)-1,3-azasilolidine-5-carboxamide] | 3 | 4 | – | – |
| CN[C@@H](C)C(=O)NC(Cc1ccc(NC(=O)c2ccc(CO[C@H]3C[C@@H](C(=O)NC4CCCc5ccccc54)N(C(=O)[C@@H](NC(=O)[C@H](C)NC)C(C)(C)C)C3)cc2)cc1)C(=O)N1C[Si](C)(C)C[C@H]1C(=O)NC1CCCc2ccccc21 (stereo partly drawn) [Example 3, (R)-1-((S)-3-(4-(4-((((3S,5S)-1-((S)-3,3-Dimethyl-2-(S)-2-(methylamino)propanamido)butanoyl)-5-(((R)-1,2,3,4-tetrahydronaphthalen-1-yl)carbamoyl)pyrrolidin-3-yl)oxy)methyl)benzamido)phenyl)-(2-((S)-2-(methylamino)propanamido)propanoyl)-3,3-dimethyl-N—((R)-1,2,3,4-tetrahydronaphthalen-1-yl)-1,3-azasilolidine-5-carboxamide] | 14 | 5 | – | – |
| CN[C@@H](C)C(=O)N[C@@H](Cc1ccc(C#Cc2ccc(C(=O)N[C@H]3C[C@@H](C(=O)N[C@@H]4CCCc5ccccc54)N(C(=O)[C@@H](NC(=O)[C@H](C)NC)C(C)(C)C)C3)cc2)cc1)C(=O)N1C[Si](C)(C)C[C@H]1C(=O)N[C@@H]1CCCc2ccccc21 [Example 5, (R)-1-((S)-3-(4-((4-(((3S,5S)-1-((S)-3,3-Dimethyl-2-((S)-2-(methylamino)propanamido)butanoyl)-5-(((R)-1,2,3,4-tetrahydronaphthalen-1-yl)carbamoyl)pyrrolidin-3-yl)carbamoyl)phenyl)ethynyl)phenyl)-2-((S)-2-(methylamino)propanamido)propanoyl)-3,3-dimethyl-N—((R)-1,2,3,4-tetrahydronaphthalen-1-yl)-1,3-azasilolidine-5-carboxamide] | 103 | 341 | – | – |
| CC[C@H](NC)C(=O)N[C@@H](Cc1ccc(NC(=O)c2ccc(C(=O)N[C@H]3C[C@@H](C(=O)N[C@@H]4CCCc5ccccc54)N(C(=O)[C@@H](NC(=O)[C@H](C)NC)C(C)(C)C)C3)cc2)cc1)C(=O)N1C[Si](C)(C)C[C@H]1C(=O)N[C@@H]1CCCc2ccccc21 [Example 11, N1-((3S,5S)-1-((S)-3,3-dimethyl-2-((S)-2-(methylamino)propanamido)butanoyl)-5-(((R)-1,2,3,4-tetrahydronaphthalen-1-yl)carbamoyl)pyrrolidin-3-yl)-N4-(4-((S)-3-((R)-3,3-dimethyl-5-(((R)-1,2,3,4-tetrahydronaphthalen-1-yl)carbamoyl)-1,3-azasilolidin-1-yl)-2-((S)-2-(methylamino)butanamido)-3-oxopropyl)phenyl)terephthalamide] | 30 | 6 | – | – |
| CN[C@@H](C)C(=O)N[C@H](C(=O)N1C[C@@H](NC(=O)c2ccc(CN(C(=O)[C@@H]3C[Si](C)(C)CN3C(=O)[C@@H](NC(=O)[C@H](C)NC)C(C)(C)C)[C@H](C)c3ccccc3F)cc2)C[C@H]1C(=O)N[C@@H]1CCCc2ccccc21)C(C)(C)C [Example 9, (R)-1-((S)-3,3-Dimethyl-2-((S)-2-(methylamino)propanamido)butanoyl)-N-(4-(((3S,5S)-1-((S)-3,3-dimethyl-2-((S)-2-(methylamino)propanamido)butanoyl)-5-(((R)-1,2,3,4-tetrahydronaphthalen-1-yl)carbamoyl)pyrrolidin-3-yl)carbamoyl)benzyl)-N—((R)-1-(2-fluorophenyl)ethyl)-3,3-dimethyl-1,3-azasilolidine-5-carboxamide] | 52 | 9 | – | – |
| CN[C@@H](C)C(=O)N[C@@H](Cc1ccc(NC(=O)N[C@H]2C[C@@H](C(=O)N[C@@H]3CCCc4ccccc43)N(C(=O)[C@@H](NC(=O)[C@H](C)NC)C(C)(C)C)C2)cc1)C(=O)N1C[Si](C)(C)C[C@H]1C(=O)N[C@@H]1CCCc2ccccc21 [Example 2, (R)-1-((S)-3-(4-(3-((3S,5S)-1-((S)-3,3-Dimethyl-2-((S)-2-(methylamino)propanamido)butanoyl)-5-(((R)-1,2,3,4-tetrahydronaphthalen-1-yl)carbamoyl)pyrrolidin-3-yl)ureido)phenyl)-2-((S)-2-(methylamino)propanamido)propanoyl)-3,3-dimethyl-N—((R)-1,2,3,4-tetrahydronaphthalen-1-yl)-1,3-azasilolidine-5-carboxamide] | 16 | 6 | – | – |
| CN[C@@H](C)C(=O)N[C@@H](Cc1ccc(C(=O)N[C@H]2C[C@@H](C(=O)N[C@@H]3CCCc4ccccc43)N(C(=O)[C@@H](NC(=O)[C@H](C)NC)C(C)(C)C)C2)cc1)C(=O)N1C[Si](C)(C)C[C@H]1C(=O)N[C@@H]1CCCc2ccccc21 [Example 10, (R)-1-((S)-3-(4-(((3S,5S)-1-((S)-3,3-dimethyl-2-((S)-2-(methylamino)propanamido)butanoyl)-5-(((R)-1,2,3,4-tetrahydronaphthalen-1-yl)carbamoyl)pyrrolidin-3-yl)carbamoyl)phenyl)-2-((S)-2-(methylamino)propanamido)propanoyl)-3,3-dimethyl-N-((R)-1,2,3,4-tetrahydronaphthalen-1-yl)-1,3-azasilolidine-5-carboxamide] | 8 | 5 | – | – |
| CN[C@@H](C)C(=O)NC(Cc1ccc(NC(=O)c2ccc(C(=O)N[C@H]3C[C@@H](C(=O)NC4CCCc5ccccc54)N(C(=O)[C@@H](NC(=O)[C@H](C)NC)C(C)(C)C)C3)cc2)cc1)C(=O)N1C[Si](C)(C)C[C@H]1C(=O)NC1CCCc2ccccc21 (stereo partly drawn) [Example 1] | 12 | 4 | – | – |
| CN[C@@H](C)C(=O)N[C@@H](Cc1ccc(CCc2ccc(C(=O)N[C@H]3C[C@@H](C(=O)N[C@@H]4CCCc5ccccc54)N(C(=O)[C@@H](NC(=O)[C@H](C)NC)C(C)(C)C)C3)cc2)cc1)C(=O)N1C[Si](C)(C)C[C@H]1C(=O)N[C@@H]1CCCc2ccccc21 [Example 6, (R)-1-((S)-3-(4-(4-(((3S,5S)-1-((S)-3,3-Dimethyl-2-((S)-2-(methylamino)propanamido)butanoyl)-5-(((R)-1,2,3,4-tetrahydronaphthalen-1-yl)carbamoyl)pyrrolidin-3-yl)carbamoyl)phenethyl)phenyl)-2-((S)-2-(methylamino)propanamido)propanoyl)-3,3-dimethyl-N—((R)-1,2,3,4-tetrahydronaphthalen-1-yl)-1,3-azasilolidine-5-carboxamide] | 84 | 205 | – | – |
| CN[C@@H](C)C(=O)N[C@H](C(=O)N1C[C@@H](NC(=O)c2ccc(CN(C(=O)[C@@H]3C[Si](C)(C)CN3C(=O)[C@@H](NC(=O)[C@H](C)NC)C(C)(C)C)[C@H](C)c3cccc(F)c3F)cc2)C[C@H]1C(=O)N[C@@H]1CCCc2ccccc21)C(C)(C)C [Example 12, (R)-N-((R)-1-(2,3-Difluorophenyl)ethyl)-1-((S)-3,3-dimethyl-2-((S)-2-(methylamino)propanamido)butanoyl)-N-(4-(((3S,5S)-1-((S)-3,3-dimethyl-2-((S)-2-(methylamino)propanamido)butanoyl)-5-(((R)-1,2,3,4-tetrahydronaphthalen-1-yl)carbamoyl)pyrrolidin-3-yl)carbamoyl)benzyl)-3,3-dimethyl-1,3-azasilolidine-5-carboxamide] | – | – | 590 | 170 |
| CN[C@@H](C)C(=O)NC(Cc1ccc(C(=O)Nc2ccc(C(=O)N[C@H]3C[C@@H](C(=O)NC4CCCc5ccccc54)N(C(=O)[C@@H](NC(=O)[C@H](C)NC)C(C)(C)C)C3)cc2)cc1)C(=O)N1C[Si](C)(C)C[C@H]1C(=O)NC1CCCc2ccccc21 (stereo partly drawn) [Example 4] | 14 | 4 | – | – |
| CN[C@@H](C)C(=O)NC(Cc1ccc(-c2ccc(C(=O)NC3C[C@@H](C(=O)NC4CCCc5ccccc54)N(C(=O)[C@@H](NC(=O)[C@H](C)NC)C(C)(C)C)C3)cc2)cc1)C(=O)N1C[Si](C)(C)C[C@H]1C(=O)NC1CCCc2ccccc21 (stereo partly drawn) [Example 7] | 93 | 307 | – | – |
